Earlier results, collected in US9084801B2, “Use of an omega-3 lipid-based emulsion following ischemic injury to provide protection and recovery in human organs” (THE TRUSTEES OF COLUMBIA UNIVERSITY IN THE CITY OF NEW YORK, priority 2005, dated 2015).

Columns and labels:
[1] = system: adult Sprague-Dawley rats, global ischemia via four vessel occlusion; conditions: intravenous, given before and/or after neurologic insult
[2] = system: adult Sprague-Dawley rats, kainate-induced seizures; conditions: intravenous, given before and/or after neurologic insult

## CC/C=C\C/C=C\C/C=C\CCCCCCCC(=O)O [α-linolenic acid]
[1]
  protection in global ischemia: protective
[2]
  protection in kainate-induced seizures: protective
